Activity calls are given as the source filed them. The rule behind the calls is not given here.
How the values were obtained:
[1] = Ratio of drug level in brain to blood in rat at 3 mg/kg, po; type: ADME, organism-based; parameters: dose 3 mg/kg, route oral
[2] = biological target: T1, 5-hydroxytryptamine receptor 1B (Homo sapiens, UniProt P28222); test: Displacement of [3H]5-HT from human recombinant 5HT1B receptor expressed in CHO cells; type: cell-based
[3] = biological target: T2, 5-hydroxytryptamine receptor 1A (Homo sapiens, UniProt P08908); test: Displacement of [3H]-WAY100635 from human recombinant 5HT1A receptor expressed in CHO cells
T2 sequence (P08908 whole entry): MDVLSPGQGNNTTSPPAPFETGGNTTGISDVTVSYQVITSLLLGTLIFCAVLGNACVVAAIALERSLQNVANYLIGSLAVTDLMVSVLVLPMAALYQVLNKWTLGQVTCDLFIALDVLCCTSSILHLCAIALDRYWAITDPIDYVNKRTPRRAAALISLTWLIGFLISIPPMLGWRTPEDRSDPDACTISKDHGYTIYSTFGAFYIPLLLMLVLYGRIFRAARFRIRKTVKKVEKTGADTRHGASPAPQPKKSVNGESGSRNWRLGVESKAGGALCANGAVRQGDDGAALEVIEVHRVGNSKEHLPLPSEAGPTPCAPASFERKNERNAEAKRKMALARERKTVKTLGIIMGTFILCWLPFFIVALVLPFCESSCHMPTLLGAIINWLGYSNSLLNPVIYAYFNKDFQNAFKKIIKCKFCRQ

Liver microsomes [4] = test: Metabolic stability assessed as intrinsic clearance in human liver microsomes; type: ADME, Microsome
[5] = biological target: T2, 5-hydroxytryptamine receptor 1A; test: Displacement of [3H]WAY 100635 from human recombinant 5HT1A receptor expressed in CHO cells; type: cell-based
[6] = biological target: Histamine H2 receptor (Homo sapiens) (UniProt P25021); test: Inhibition of histamine H2 receptor at 1 uM
[7] = biological target: Sodium-dependent serotonin transporter (Rattus norvegicus, UniProt P31652)
Description: Inhibition of [3H]5-HT uptake at SERT in rat cortical synaptosomes

Liver microsomes [8] = test: Metabolic stability assessed as intrinsic clearance in rat liver microsomes; type: ADME, Microsome
[9] = Half life in rat at 1 mg/kg, iv; type: ADME, organism-based; parameters: dose 1 mg/kg, route intravenous; details: in vivo
[10] = Oral bioavailability in rat at 3 mg/kg; type: ADME, organism-based; details: in vivo
[11] = Volume of distribution at steady state in rat at 1 mg/kg, iv; type: ADME, organism-based; parameters: dose 1 mg/kg, route intravenous; details: in vivo, read-out: Vdss
[12] = biological target: T3, 5-hydroxytryptamine receptor 1D (Homo sapiens, UniProt P28221); test: Displacement of [3H]5-HT from human recombinant 5HT1D receptor expressed in CHO cells; type: cell-based
[13] = Clearance in rat blood at 1 mg/kg, iv; type: ADME, organism-based; parameters: dose 1 mg/kg, route intravenous
[14] = biological target: T4, Alpha-1A adrenergic receptor (Homo sapiens) (UniProt P35348); test: Inhibition of adrenergic alpha1 receptor at 1 uM
T4 sequence (whole entry): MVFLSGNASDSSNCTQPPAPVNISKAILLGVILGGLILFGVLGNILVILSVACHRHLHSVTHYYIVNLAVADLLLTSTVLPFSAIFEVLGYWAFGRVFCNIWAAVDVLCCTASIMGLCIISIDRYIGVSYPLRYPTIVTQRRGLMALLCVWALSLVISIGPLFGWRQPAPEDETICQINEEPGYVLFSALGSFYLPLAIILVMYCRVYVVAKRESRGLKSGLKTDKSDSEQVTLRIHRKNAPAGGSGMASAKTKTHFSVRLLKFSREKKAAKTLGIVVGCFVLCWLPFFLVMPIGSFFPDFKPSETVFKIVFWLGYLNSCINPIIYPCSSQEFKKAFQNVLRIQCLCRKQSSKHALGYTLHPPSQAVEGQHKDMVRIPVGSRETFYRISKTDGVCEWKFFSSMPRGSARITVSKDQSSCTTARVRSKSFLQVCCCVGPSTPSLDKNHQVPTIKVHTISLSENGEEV

[15] = biological target: T1, 5-hydroxytryptamine receptor 1B; test: Intrinsic activity at human recombinant 5HT1B receptor expressed in CHO cells by [35S]GTP-gamma-S binding assay relative to 5-hydroxytryptamine; type: functional, cell-based
[16] = biological target: T5, Muscarinic acetylcholine receptor M1 (Homo sapiens) (UniProt P11229); test: Inhibition of muscarinic M1 receptor at 1 uM
T5 sequence (whole entry): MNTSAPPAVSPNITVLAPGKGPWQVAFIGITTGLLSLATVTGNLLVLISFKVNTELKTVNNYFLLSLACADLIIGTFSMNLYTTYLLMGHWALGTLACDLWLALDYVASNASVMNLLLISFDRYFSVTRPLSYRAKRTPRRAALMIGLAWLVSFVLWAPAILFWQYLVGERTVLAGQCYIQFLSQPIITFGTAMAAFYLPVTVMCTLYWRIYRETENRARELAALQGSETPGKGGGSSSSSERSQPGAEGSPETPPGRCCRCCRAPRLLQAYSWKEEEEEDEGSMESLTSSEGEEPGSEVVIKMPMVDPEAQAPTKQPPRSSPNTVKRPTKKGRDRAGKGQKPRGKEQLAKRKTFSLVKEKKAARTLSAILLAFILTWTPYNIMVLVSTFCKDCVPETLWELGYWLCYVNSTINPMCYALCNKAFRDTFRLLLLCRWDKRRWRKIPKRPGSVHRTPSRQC

[17] = biological target: T6, 5-hydroxytryptamine receptor 1A (Homo sapiens) (UniProt P08908); test: Intrinsic activity at human recombinant 5HT1A receptor expressed in CHO cells by [35S]GTP-gamma-S binding assay relative to 5-hydroxytryptamine; type: functional, cell-based
T6 sequence (whole entry): T2 sequence (P08908 whole entry)

Cytochrome P450 2C9 = Cytochrome P450 2C9 (Homo sapiens, UniProt P11712); test: Inhibition of CYP2C9; type: ADME
Cytochrome P450 1A2 = biological target: T7, Cytochrome P450 1A2 (Homo sapiens, UniProt P05177); test: Inhibition of CYP1A2; type: ADME
T7 sequence (P05177 whole entry): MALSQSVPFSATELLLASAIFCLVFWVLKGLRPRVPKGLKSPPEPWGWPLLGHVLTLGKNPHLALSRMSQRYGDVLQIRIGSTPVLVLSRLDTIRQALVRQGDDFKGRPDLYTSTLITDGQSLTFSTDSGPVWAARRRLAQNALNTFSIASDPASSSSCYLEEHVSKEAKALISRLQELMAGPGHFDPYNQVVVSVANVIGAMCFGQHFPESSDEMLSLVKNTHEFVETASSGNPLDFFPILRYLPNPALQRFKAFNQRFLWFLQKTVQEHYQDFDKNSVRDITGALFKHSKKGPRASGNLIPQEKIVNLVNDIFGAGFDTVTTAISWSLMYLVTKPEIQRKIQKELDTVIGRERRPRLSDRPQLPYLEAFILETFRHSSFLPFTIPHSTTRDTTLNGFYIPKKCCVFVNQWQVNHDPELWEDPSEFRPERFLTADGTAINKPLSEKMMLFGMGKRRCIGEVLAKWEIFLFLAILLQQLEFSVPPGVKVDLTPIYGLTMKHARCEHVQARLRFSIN

Cytochrome P450 2C19 = Cytochrome P450 2C19 (Homo sapiens, UniProt P33261); test: Inhibition of CYP2C19; type: ADME
[18] = biological target: T3, 5-hydroxytryptamine receptor 1D; test: Intrinsic activity at human recombinant 5HT1D receptor expressed in CHO cells by [35S]GTP-gamma-S binding assay relative to 5-hydroxytryptamine; type: functional, cell-based
Cytochrome P450 2D6 = Cytochrome P450 2D6 (Homo sapiens, UniProt P10635); test: Inhibition of CYP2D6; type: ADME
Cytochrome P450 3A4 = Cytochrome P450 3A4 (Homo sapiens, UniProt P08684); test: Inhibition of CYP3A4; type: ADME
[19] = Selectivity for human recombinant 5HT1D receptor over rat cortical SERT
[20] = Selectivity for human recombinant 5HT1B receptor over rat cortical SERT
[21] = Selectivity for human recombinant 5HT1A receptor over rat cortical SERT

Sequence of Cytochrome P450 3A4 (P08684 whole entry): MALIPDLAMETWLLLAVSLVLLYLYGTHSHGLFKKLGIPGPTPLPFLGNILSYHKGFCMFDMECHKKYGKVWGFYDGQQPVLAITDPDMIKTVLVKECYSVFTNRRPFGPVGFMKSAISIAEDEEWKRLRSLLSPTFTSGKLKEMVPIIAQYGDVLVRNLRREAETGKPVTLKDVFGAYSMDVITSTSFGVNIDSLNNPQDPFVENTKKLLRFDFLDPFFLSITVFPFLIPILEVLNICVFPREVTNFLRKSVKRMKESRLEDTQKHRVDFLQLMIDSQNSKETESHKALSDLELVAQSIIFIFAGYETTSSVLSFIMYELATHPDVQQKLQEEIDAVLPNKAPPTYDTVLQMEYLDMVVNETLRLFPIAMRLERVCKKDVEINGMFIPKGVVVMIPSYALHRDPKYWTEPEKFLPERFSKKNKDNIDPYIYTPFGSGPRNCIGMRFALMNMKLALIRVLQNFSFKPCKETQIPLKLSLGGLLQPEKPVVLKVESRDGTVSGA
Sequence of Cytochrome P450 2C19 (P33261 whole entry): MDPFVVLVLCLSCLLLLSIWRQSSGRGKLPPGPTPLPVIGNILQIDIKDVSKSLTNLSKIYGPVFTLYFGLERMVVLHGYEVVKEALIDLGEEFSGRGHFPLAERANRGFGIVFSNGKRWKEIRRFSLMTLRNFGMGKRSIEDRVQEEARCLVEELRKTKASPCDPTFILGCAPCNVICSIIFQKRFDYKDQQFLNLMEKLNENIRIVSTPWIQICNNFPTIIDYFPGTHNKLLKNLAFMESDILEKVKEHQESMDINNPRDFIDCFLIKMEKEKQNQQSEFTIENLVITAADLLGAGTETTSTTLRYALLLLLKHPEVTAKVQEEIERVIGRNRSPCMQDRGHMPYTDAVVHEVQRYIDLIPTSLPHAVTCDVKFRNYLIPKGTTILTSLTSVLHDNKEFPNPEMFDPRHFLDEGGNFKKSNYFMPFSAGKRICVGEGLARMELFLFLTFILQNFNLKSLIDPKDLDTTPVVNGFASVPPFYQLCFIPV
T3 sequence (P28221 whole entry): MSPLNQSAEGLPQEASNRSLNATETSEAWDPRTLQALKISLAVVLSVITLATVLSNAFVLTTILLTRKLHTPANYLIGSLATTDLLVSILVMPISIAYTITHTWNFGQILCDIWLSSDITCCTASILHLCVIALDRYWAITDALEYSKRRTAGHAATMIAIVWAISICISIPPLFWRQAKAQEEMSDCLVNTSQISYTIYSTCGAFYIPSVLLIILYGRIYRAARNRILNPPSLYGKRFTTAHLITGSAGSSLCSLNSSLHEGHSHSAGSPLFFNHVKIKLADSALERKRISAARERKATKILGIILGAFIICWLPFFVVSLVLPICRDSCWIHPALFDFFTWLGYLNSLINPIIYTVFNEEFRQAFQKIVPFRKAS
Sequence of Sodium-dependent serotonin transporter (P31652 whole entry): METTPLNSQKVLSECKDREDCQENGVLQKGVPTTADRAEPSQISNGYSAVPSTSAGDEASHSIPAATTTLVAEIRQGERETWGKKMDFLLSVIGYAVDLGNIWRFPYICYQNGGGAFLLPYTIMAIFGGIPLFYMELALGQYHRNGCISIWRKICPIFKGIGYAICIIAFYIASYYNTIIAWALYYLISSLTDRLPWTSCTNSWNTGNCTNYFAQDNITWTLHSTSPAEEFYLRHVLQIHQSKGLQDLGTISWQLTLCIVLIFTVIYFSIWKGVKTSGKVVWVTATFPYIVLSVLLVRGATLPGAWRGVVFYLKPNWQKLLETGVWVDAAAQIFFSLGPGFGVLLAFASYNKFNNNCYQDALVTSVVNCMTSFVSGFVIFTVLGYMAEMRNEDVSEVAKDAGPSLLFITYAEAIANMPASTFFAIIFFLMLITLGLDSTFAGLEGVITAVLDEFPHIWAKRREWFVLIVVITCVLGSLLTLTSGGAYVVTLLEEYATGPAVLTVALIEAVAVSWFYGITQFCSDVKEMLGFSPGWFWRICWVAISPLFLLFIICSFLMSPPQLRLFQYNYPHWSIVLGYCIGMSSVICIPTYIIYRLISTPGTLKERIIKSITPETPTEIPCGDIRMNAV
Sequence of Cytochrome P450 2D6 (P10635 whole entry): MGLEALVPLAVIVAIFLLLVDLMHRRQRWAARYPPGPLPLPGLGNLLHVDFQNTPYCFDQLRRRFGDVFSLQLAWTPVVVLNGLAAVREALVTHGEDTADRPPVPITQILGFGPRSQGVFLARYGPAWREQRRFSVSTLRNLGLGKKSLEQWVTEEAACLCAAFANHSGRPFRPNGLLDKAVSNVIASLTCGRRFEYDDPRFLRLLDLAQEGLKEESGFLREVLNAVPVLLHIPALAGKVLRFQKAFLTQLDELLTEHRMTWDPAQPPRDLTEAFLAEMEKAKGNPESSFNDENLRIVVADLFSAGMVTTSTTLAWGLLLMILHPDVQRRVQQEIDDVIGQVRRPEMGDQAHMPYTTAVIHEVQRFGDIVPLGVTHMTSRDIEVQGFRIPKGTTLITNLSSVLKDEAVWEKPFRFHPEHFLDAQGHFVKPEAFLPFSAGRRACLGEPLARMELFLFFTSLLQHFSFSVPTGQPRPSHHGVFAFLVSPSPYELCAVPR
T1 sequence (P28222 whole entry): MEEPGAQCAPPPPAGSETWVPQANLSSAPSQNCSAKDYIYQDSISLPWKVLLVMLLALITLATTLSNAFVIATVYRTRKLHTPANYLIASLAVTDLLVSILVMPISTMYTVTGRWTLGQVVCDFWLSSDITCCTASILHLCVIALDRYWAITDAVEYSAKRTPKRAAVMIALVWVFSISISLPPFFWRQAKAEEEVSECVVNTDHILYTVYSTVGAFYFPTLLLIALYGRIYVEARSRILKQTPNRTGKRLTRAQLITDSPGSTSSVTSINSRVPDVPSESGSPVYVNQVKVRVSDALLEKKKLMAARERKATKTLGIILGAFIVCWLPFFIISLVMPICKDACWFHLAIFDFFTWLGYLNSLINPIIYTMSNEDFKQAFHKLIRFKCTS
Sequence of Cytochrome P450 2C9 (P11712 whole entry): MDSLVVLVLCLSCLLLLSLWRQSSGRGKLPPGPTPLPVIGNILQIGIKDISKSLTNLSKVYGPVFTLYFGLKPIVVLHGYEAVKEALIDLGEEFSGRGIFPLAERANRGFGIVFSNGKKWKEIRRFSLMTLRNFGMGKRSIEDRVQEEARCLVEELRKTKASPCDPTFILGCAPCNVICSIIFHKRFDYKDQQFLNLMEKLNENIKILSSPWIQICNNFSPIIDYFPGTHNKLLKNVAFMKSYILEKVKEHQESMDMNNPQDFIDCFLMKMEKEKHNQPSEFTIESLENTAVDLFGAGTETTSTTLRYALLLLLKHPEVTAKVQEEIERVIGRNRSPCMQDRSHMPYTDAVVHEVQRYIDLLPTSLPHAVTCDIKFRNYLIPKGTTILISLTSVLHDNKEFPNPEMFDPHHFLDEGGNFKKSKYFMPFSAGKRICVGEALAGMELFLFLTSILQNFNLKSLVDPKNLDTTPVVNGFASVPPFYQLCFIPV
Sequence of Histamine H2 receptor (Homo sapiens) (P25021 whole entry): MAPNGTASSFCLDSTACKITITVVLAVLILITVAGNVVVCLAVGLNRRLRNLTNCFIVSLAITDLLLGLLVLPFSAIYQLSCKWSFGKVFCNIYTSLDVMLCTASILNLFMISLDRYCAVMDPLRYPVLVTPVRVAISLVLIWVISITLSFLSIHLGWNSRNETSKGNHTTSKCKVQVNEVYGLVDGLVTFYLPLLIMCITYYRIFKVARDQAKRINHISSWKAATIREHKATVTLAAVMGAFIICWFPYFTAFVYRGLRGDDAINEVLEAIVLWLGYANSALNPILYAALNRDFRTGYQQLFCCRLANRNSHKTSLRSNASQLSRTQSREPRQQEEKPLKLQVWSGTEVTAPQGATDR

Row | Structure (SMILES) | Ki [2] | Ki [3] | Ki [5] | Ki [7] | half-life [9] | Ki [12] | clearance [13] | Intrinsic activity [15] | Intrinsic activity [17] | IC50 (Cytochrome P450 2C9) | IC50 (Cytochrome P450 1A2) | IC50 (Cytochrome P450 2C19) | Intrinsic activity [18] | IC50 (Cytochrome P450 2D6) | IC50 (Cytochrome P450 3A4) | further results
1 | Cc1ccc2c(OCCN3CCC(Cc4ccc5c(c4)N(C)C(=O)CO5)CC3)cccc2n1 | 6.31 nM | 0.398 nM | 6.31 nM | 39.8 nM | 1.3 h | 2.51 nM | 57 mL/min/kg | 0.5 | 0 | – | – | – | – | – | – | Kp [1]: 1.3; CL (Liver microsomes [4]): 0.9 mL/min/g; Activity [6]: Active; CL (Liver microsomes [8]): 4.9 mL/min/g; bioavailability [10]: 35%; Vd [11]: 4.2 L/kg; Activity [14]: Active; Activity [16]: Active
2 | CCCCN1C(=O)COc2ccc(CN3CCN(CCOc4cccc5nc(C)ccc45)CC3)cc21 | 31.6 nM | 1.26 nM | – | 158 nM | – | 3.16 nM | – | – | – | 12000 nM | 4000 nM | 16000 nM | – | – | – | –
3 | Cc1ccc2c(OCCN3CCN(Cc4ccc5c(c4)N(CC(C)C)C(=O)CO5)CC3)cccc2n1 | 31.6 nM | 2 nM | – | 1580 nM | – | 2.51 nM | – | – | – | – | – | – | – | – | – | –
4 | COc1ccc(NC(=O)c2ccc(-c3ccc(-c4noc(C)n4)cc3C)cc2)cc1N1CCN(C)CC1 | – | – | – | – | – | – | – | 0.3 | – | – | – | – | 0.8 | – | – | –
5 | Cc1ccc2c(OCCN3CCN(Cc4ccc5c(c4)N(CCc4ccccc4)C(=O)CO5)CC3)cccc2n1 | 25.1 nM | 1.26 nM | 31.6 nM | – | – | 2 nM | – | – | – | 4000 nM | 17000 nM | 5000 nM | – | 14000 nM | 9000 nM | –
6 | Cc1ccc2c(OCCN3CCC(Cc4ccc5c(c4)N(C(C)C)C(=O)CO5)CC3)cccc2n1 | 39.8 nM | 0.631 nM | 5.01 nM | 100 nM | – | 3.98 nM | – | 0.6 | 0 | – | – | – | – | – | – | –
7 | CCN1C(=O)COc2ccc(CN3CCN(CCOc4cccc5nc(C)ccc45)CC3)cc21 | 25.1 nM | 1.26 nM | 39.8 nM | 2000 nM | – | 1 nM | – | 0.4 | 0.1 | 14000 nM | 18000 nM | – | 0.3 | – | – | –
8 | Cc1ccc2c(OCCN3CCN(Cc4ccc5c(c4)NC(=O)CO5)CC3)cccc2n1 | 100 nM | 1.58 nM | 63.1 nM | 25.1 nM | – | 10 nM | – | 0.6 | 0 | – | – | – | – | – | – | –
9 | Cc1ccc2c(OCCN3CCN(Cc4ccc5c(c4)N(Cc4ccccc4)C(=O)CO5)CC3)cccc2n1 | 63.1 nM | 3.98 nM | – | 316 nM | – | 6.31 nM | – | – | – | 7000 nM | 11000 nM | 11000 nM | – | 15000 nM | 12000 nM | –
10 | Cc1ccc2c(OCCN3CCN(Cc4ccc5c(c4F)N(C)C(=O)CO5)CC3)cccc2n1 | 1.58 nM | – | 3.16 nM | 79.4 nM | 2 h | 0.501 nM | 34 mL/min/kg | 0.4 | 0 | > 16000 nM | > 16000 nM | > 16000 nM | 0.6 | > 16000 nM | > 16000 nM | Kp [1]: 2.7; bioavailability [10]: 65%
11 | CCN1C(=O)COc2ccc(CN3CCN(CCOc4cccc5nc(C)ccc45)CC3)c(F)c21 | 1.58 nM | – | 2.51 nM | 200 nM | 2.8 h | 1.26 nM | 23 mL/min/kg | 0.5 | 0.1 | > 9000 nM | > 9000 nM | > 9000 nM | 0.7 | > 9000 nM | > 9000 nM | Kp [1]: 1.2; bioavailability [10]: 34%
12 | Cc1ccc2c(OCCN3CCN(Cc4cc(F)c5c(c4)N(C)C(=O)CO5)CC3)cccc2n1 | 0.2 nM | – | 7.94 nM | 50.1 nM | 1.3 h | 0.398 nM | 14 mL/min/kg | 0.7 | 0 | > 19000 nM | > 19000 nM | > 19000 nM | 0.6 | > 19000 nM | > 19000 nM | Kp [1]: 3.6
13 | CCCN1C(=O)COc2ccc(CN3CCN(CCOc4cccc5nc(C)ccc45)CC3)cc21 | 31.6 nM | 0.251 nM | 25.1 nM | 158 nM | – | 2 nM | – | 0.4 | 0.1 | 18000 nM | – | – | 0.5 | – | – | –
14 | Cc1ccc2c(OCCN3CCC(Cc4ccc5c(c4)NC(=O)CO5)CC3)cccc2n1 | – | – | – | – | 1.3 h | – | 50 mL/min/kg | 0.5 | 0.1 | – | – | – | 0.5 | – | – | CL (Liver microsomes [4]): 1.2 mL/min/g; CL (Liver microsomes [8]): 3.4 mL/min/g; bioavailability [10]: 40%; Vd [11]: 4.4 L/kg
15 | CCN1C(=O)COc2ccc(CC3CCN(CCOc4cccc5nc(C)ccc45)CC3)cc21 | 3.98 nM | 0.251 nM | 3.16 nM | 126 nM | 1.6 h | 1.58 nM | 31 mL/min/kg | 0.4 | 0.1 | – | – | – | 0.6 | – | – | CL (Liver microsomes [4]): 2.8 mL/min/g; Ratio pKi [19]: 30; CL (Liver microsomes [8]): 7.7 mL/min/g; Vd [11]: 2.5 L/kg; Ratio pKi [20]: 30; Ratio pKi [21]: 30
16 | Cc1ccc2c(OCCN3CCN(Cc4ccc5c(c4)N(C)C(=O)CO5)CC3)cccc2n1 | 7.94 nM | 1.58 nM | 10 nM | 100 nM | – | 0.501 nM | – | 0.8 | 0 | > 20000 nM | > 20000 nM | > 20000 nM | – | > 20000 nM | > 20000 nM | –
